According to PubChem BioAssay AID449764 (Southern Research Specialized Biocontainment Screening …, 2010):
Where a SMILES comes first, the peptide text is derived from it. [ ]: non-standard residue; d: D form. The star is where a group is joined. ξ: configuration not given here. ξF = NC(Cc1ccccc1)C(=O)O; Cbz = O=C(OCc1ccccc1)*

Test system: Mycobacterium tuberculosis H37Rv growth inhibition, no glycerol
Assay: Confirmatory growth inhibition assay, Mycobacterium tuberculosis H37Rv, absence of glycerol (AID 449764);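 further: growth read after 7 days of incubation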
Settings: for IC90: measured here: IC90 growth inhibition

Row | Structure (SMILES) | IC50 | IC90
1 | CCc1ccc2c(c1)C1(C(=O)N2)N2CCCC2C(C(=O)c2ccc3ccccc3c2)C12C(=O)Nc1ccccc12 (configuration not stated) | 23.9 µM | 36.2 µM
2 | Cc1nn(-c2ccccc2)nc1C(=O)c1c(C)[nH]n(-c2ccccc2)c1=O | 17.5 µM | 23.2 µM
3 | Cc1ccc(Cn2nnnc2CN2CCC(c3nc4ccc(Cl)cc4[nH]3)CC2)cc1 | 31 µM | 40.8 µM
4 | Clc1ccc(CNc2nc(CN3CCOCC3)nc3scc(-c4ccccc4)c23)cc1 | 33.5 µM | 42.1 µM
5 | CC(C)(C)c1ccc(C(=O)N2CCN(CCNC(=O)C(=O)NCc3ccc(Cl)cc3)CC2)cc1 | 24.7 µM | 46.7 µM
6 | CCC[C@@H]1C[C@@H](C(=O)NC(C(C)Cl)[C@H]2O[C@H](SC)[C@H](O)[C@@H](O)[C@H]2O)N(C)C1 (some centres not stated) | 3.91 µM | 11.5 µM
7 | CC1=CC(=O)c2c(O)ccc(O)c2C1=O | 5.64 µM | 7.87 µM
8 | CC(Oc1ccc2ccccc2c1)C(=O)NNC(=S)NC(=O)c1ccco1 (configuration not stated) | 22.4 µM | 31.9 µM
9 | COC(=O)c1cc(=O)n(-c2ccc(F)cc2)c(=Nc2ccc(F)cc2)s1 | 0.46 µM | 1.24 µM
10 | Cc1ccccc1-n1c(SCC(=O)N/N=C/c2c(C)nn(-c3ccccc3)c2C)nc2ccccc2c1=O | 4.6 µM | 6.27 µM
11 | Oc1ccc(-[n+]2c(-c3ccccc3)cc(-c3ccccc3)cc2-c2ccccc2)cc1 | 14.3 µM | 17.2 µM
12 | CC(C)OC(=O)/C(C#N)=C/c1ccc(-c2ccc(SC(F)F)cc2)o1 | 5.19 µM | 8.24 µM
13 | Cc1cc(=O)n2[nH]c(Nc3cccc(Cl)c3)nc2n1 | 29.1 µM | 68 µM
14 | Cc1cccc(C)c1OCCCCc1c(C)n[nH]c1C | 17.7 µM | > 100 µM
15 | CC(C)NC(=O)c1sc(=S)n2c1[nH]c(=O)c1ccc(C(=O)NCCc3ccc(Cl)cc3)cc12 | 0.73 µM | 0.83 µM
16 | CCOC(=O)COn1c2c(c3c4no[n+]([O-])c4ccc31)CCCC2 | 5.68 µM | 6.48 µM
17 | CC(NC(=O)CCl)c1ccc(Cl)c(Cl)c1 (configuration not stated) | 4.1 µM | 7.74 µM
18 | C(=N\Nc1nc(-c2ccccc2)cs1)/c1ccncc1 | 62.7 µM | 79.9 µM
19 | Cc1cc(OC(=O)c2cccs2)c2c3c(c(=O)oc2c1)CCCC3 | 4.18 µM | 8.9 µM
20 | Cc1ccc(C(=O)N/C(=C/c2ccc(-c3cc(C(F)(F)F)ccc3Cl)o2)C(=O)NCc2cccnc2)cc1 | 73.6 µM | > 100 µM
21 | CC1(C)c2[nH]c3ccccc3c2C[C@@H]2C(=O)N(Cc3ccccc3F)C(=O)N21 | 49.3 µM | > 50 µM
22 | O=C1CCc2ccc(OCCCCN3CCN(c4cccc(Cl)c4Cl)CC3)cc2N1 | 33.3 µM | > 100 µM

Row | Structure (SMILES) | IC50 | IC90
23 | Cc1cc(C(=O)N[C@H](c2ccccc2)[C@@]2(C)C[C@@H]2[C@@H](C)C(=O)Nc2ccc3ccccc3c2)n(C)n1 | 39.1 µM | 53.9 µM
24 | Cc1cc(C)cc(-n2c(C)c3c(C)nnc(C)c3c2C)c1 | 61.3 µM | 79.7 µM
25 | COc1ccc(C(CC(=O)c2ccccc2)S(=O)(=O)c2ccc(C)cc2)cc1 (configuration not stated) | 56.3 µM | 92.2 µM
26 | CCN1CSC(=S)N(Cc2ccccc2)C1 | 32.5 µM | 60.7 µM
27 | CCOc1ccc(Nc2cc(C)nc(-n3nc(C)cc3C)n2)cc1 | 2.27 µM | 4.89 µM
28 | CC(=O)/C=C(\C)Nc1ccccc1O | 4.45 µM | 5.87 µM
29 | Cc1ccc(-n2c(Cl)c(Cl)nc(Cl)c2=O)cc1 | 16.3 µM | 24.8 µM
30 | Cc1ccc(S(=O)(=O)NC(CC(C)C)C(=O)N2CCN(C/C=C/c3ccccc3)CC2)cc1 (configuration not stated) | 66.4 µM | 90.2 µM
31 | COc1ccc(N2C(=O)C(Cl)=C(Nc3ccccc3O)C2=O)cc1 | 18.4 µM | 24.8 µM
32 | CCOC(=O)c1cnc(Nc2nc3ccccc3o2)nc1CSC(=S)N(CC)CC | 49.3 µM | 56.6 µM
33 | CN1C(=S)SC(N(O)C(=O)Nc2ccc(Cl)c(Cl)c2)C1(C)C (configuration not stated) | 23.4 µM | 26.6 µM
34 | CN1/C(=C/C(=O)c2nc(S(C)(=O)=O)ncc2Cl)C(C)(C)c2ccccc21 | 6.77 µM | 13.1 µM
35 | O=C(CCl)N1CCCC1c1ccc2c(c1)OCCO2 (configuration not stated) | 8.76 µM | 14.1 µM
36 | Nc1nc2ccccc2n1CCOc1ccccc1Cl | 20.3 µM | 23.1 µM
37 | CN(C)N=Nc1nc[nH]c1C(N)=O | 5.04 µM | 8.38 µM
38 | COc1ccc(OCc2cccc(C(=O)Nn3cc([N+](=O)[O-])cn3)c2)cc1 | 26.2 µM | 42.9 µM
39 | CCCCCc1ccc(S(=O)(=O)NCCc2ccncc2)cc1 | 36.5 µM | 47 µM
40 | Cc1cccc(C)c1Nc1c(-c2ccccn2)nc2ccccn12 | 5.93 µM | 8.59 µM
41 | COc1ccc(C(=O)/C=C/Sc2nc3ccccc3o2)cc1 | 90.8 µM | > 100 µM
42 | CCOC(=O)CSc1nnc(NC(=O)c2ccc3c(c2)OCO3)s1 | 11.4 µM | 20.2 µM
43 | CCOC(=O)CSc1nnc(-c2c[nH]c3ccccc23)o1 | 8.61 µM | 22.1 µM
44 | CCOC(=O)c1sc(NC(=O)CN2C(=O)NC3(CC(C)CC(C)(C)C3)C2=O)cc1C (configuration not stated) | 34.1 µM | 48.4 µM

Row | Structure (SMILES) | IC50 | IC90
45 | CSc1nsc(/C=C/Nc2ccc(O)cc2C)c1C#N | 44.5 µM | 49.6 µM
46 | CN(C)CCNc1ncnc2c1sc1nc(-c3ccccc3)c3c(c12)CCCC3 | 22.5 µM | 24.2 µM
47 | CCc1nc(N2CCN(C(C)=O)CC2)c2c3c(sc2n1)CC(C(C)(C)C)CC3 (configuration not stated) | 17.9 µM | 21.5 µM
48 | CCCc1cc(-c2nc(-c3ccc(Br)cc3)cs2)ccn1 | 16.4 µM | 24.6 µM
49 | CCOC(=O)CNC(=O)C(Cc1ccccc1)NC(=O)OCc1ccccc1 (configuration not stated) (Cbz-[ξF]-Gly-OEt) | 3.04 µM | 3.46 µM
50 | O=[N+]([O-])c1cc(-c2nc(-c3ccncc3)no2)cc([N+](=O)[O-])c1 | 10.4 µM | 20.5 µM
51 | COc1ccc(-c2nnn(CC(=O)OC3CCCCC3)n2)cc1OC | 20.6 µM | > 100 µM
52 | S=c1nc2ccccc2c2nc(-c3ccccc3)[nH]n12 | 17.6 µM | 24.5 µM
53 | CCC1CSC(Nc2ccc(C(=O)/C=C/c3cccc(C)c3)cc2)=N1 (configuration not stated) | 20.5 µM | 35.9 µM
54 | CC1=NN(c2ccc(C)c(C)c2)C(=O)/C1=C\C=C\c1ccc([N+](=O)[O-])o1 | 10.9 µM | 17.7 µM
55 | Cc1cc(C)nc(Sc2ncnc(N)c2[N+](=O)[O-])n1 | 19.3 µM | 25.5 µM
56 | CN(CC(=O)Nc1ccc(OC(F)(F)F)cc1)C(=O)/C=C/c1cc2c(cc1[N+](=O)[O-])OCO2 | 34.5 µM | 40.5 µM
57 | O=[N+]([O-])c1cc(-c2ncccn2)c([N+](=O)[O-])s1 | 33.1 µM | 38.8 µM
58 | CN(C)CCOc1nc(-c2ccccc2)nc2c1oc1ccccc12 | 19.1 µM | 25.6 µM
59 | COc1cc(C(=O)N/N=C/c2cc([N+](=O)[O-])cs2)cc(OC)c1OC | 8.58 µM | > 100 µM
60 | CC1CCN(C(=O)c2ccc(-c3ccccc3Cl)o2)CC1 | 41 µM | 60.1 µM
61 | COc1cccc(-c2nnc(NC(=O)c3ccc(S(=O)(=O)N4CCOCC4)cc3)o2)c1 | 32.4 µM | 46 µM
62 | Cc1ccc(OC(=O)CCN2C(=O)c3ccccc3C2=O)cc1C | 85.1 µM | > 100 µM
63 | CCOC(=O)C1=C(C)Nc2nc(SCC(=O)OC)nn2C1c1cc(F)cc(F)c1 (configuration not stated) | 9.99 µM | 12.5 µM
64 | OC(CNCC(c1ccc(Cl)cc1Cl)c1c[nH]c2ccccc12)c1ccccc1 (configuration not stated) | 22.9 µM | 26.2 µM
65 | COc1ccc2c(c1)[C@@H]1[C@H](CO2)[C@H](c2ccccc2)[C@]2(C)C(=O)Nc3ccc(C)cc3C(=O)N12 | 71.1 µM | > 100 µM
66 | O=C(NCCCN1CCOCC1)c1cc2c([nH]c3ccccc32)c(-c2cccc(Br)c2)n1 | 18.6 µM | 24.3 µM

Row | Structure (SMILES) | IC50 | IC90
67 | Ic1ccccc1CN[C@@H]1C2CCN(CC2)[C@@H]1C(c1ccccc1)c1ccccc1 | 28.9 µM | 42.7 µM
68 | O=[N+]([O-])c1c(C(Cl)Cl)nn(-c2ccc(Cl)cc2)c1N1CCCCC1 | 21.2 µM | 23.3 µM
69 | COc1ccccc1-c1cc(C(=O)NC2CCN(C)CC2)c2ccc(Cl)c(C)c2n1 | 83.5 µM | > 100 µM
70 | Cc1ccc2nc(/N=C(\N)NC(=O)NC3CCCCC3)nc(C)c2c1 | 6.71 µM | 16.6 µM
71 | COC(=O)CSc1nnc([C@H](CC(C)C)NC(=O)OC(C)(C)C)o1 | 21.9 µM | 29.9 µM
72 | COc1cccc(/C=N/Nc2nc(Nc3ccccc3)nc(-n3nc(C)cc3C)n2)c1O | < 0.2 µM | 0.25 µM
73 | CC(Sc1nnc(NC2CCCCC2)s1)C(=O)Nc1ccc2c(c1)C(=O)c1ccccc1C2=O (configuration not stated) | 11.2 µM | 14.4 µM
74 | COc1cc(C)c(/C=C/C(C)=C/C=C/C(C)=C/C(=O)O)c(C)c1C | 24.7 µM | 43.5 µM
75 | Cc1ccc(C(=O)O/N=C\c2ccc(N3CCCCC3)c([N+](=O)[O-])c2)cc1 | 53.4 µM | > 100 µM
76 | C/C(O)=C\c1nc2ccccc2oc1=O | 0.75 µM | 0.89 µM
77 | Clc1ccc(SCc2cc(N3CCOCC3)nc(-c3ccccn3)n2)cc1 | 6.68 µM | 11.6 µM
78 | O=C(/C=C/c1c(F)cccc1Cl)c1ccc(F)cc1 | 46.2 µM | 73 µM
79 | CC1(c2ccc(OC(F)F)cc2)NC(=O)N(CC(=O)c2ccc3c(c2)OCO3)C1=O (configuration not stated) | 37.2 µM | 70.8 µM
80 | Cc1ccc2nc(/C(C#N)=C/c3cn[nH]c3-c3ccc(F)cc3)[nH]c2c1 | 19.2 µM | 25.4 µM
81 | [O-][n+]1c2ccccc2c2n1CCN1CCOC21c1ccc(Cl)cc1 (configuration not stated) | 51 µM | 79.3 µM
82 | COC(=O)CSc1nnc(CNc2ccc(Cl)cc2)n1-c1ccccc1 | 22.4 µM | 25.3 µM
83 | O=C(NC1CCN(Cc2ccccc2)CC1)c1cccc(S(=O)(=O)Nc2ccc(SC(F)F)cc2)c1 | 19.3 µM | 27.9 µM
84 | Cc1nc(NCCc2ccccc2)c2oc3ccccc3c2n1 | 7.3 µM | 13.3 µM
85 | CC(/C=N/NC(=O)c1cc(-c2ccc3ccccc3c2)n[nH]1)=C\c1ccco1 | 43.8 µM | 66.8 µM
86 | Cc1ccc2nc(=O)c(NNc3ccccc3)cnc2c1 | 35.3 µM | > 100 µM
